The data set can be described thus: solubility of sunitinib base (applicants' observation). The data set is classed as physicochemical. To be noted: qualitative; dissolution in solvents for salt preparation. From the text: In this regard, the low solubility of sunitinib base requires large amounts of solvents or mixture of solvents and/or the use of particular harsh conditions aimed to increase the solubility of sunitinib base and/or reduce long reaction times, which represents a significant drawback, especially for industrial scale-up. Further, solid sunitinib base is difficult to handle since it is a very fine powder which is difficult to filter and isolate.

Turning to `CCN(CC)CCNC(=O)c1c(C)[nH]c(/C=C2\C(=O)Nc3ccc(F)cc32)c1C` [sunitinib base, N-[2-(diethylamino)ethyl]-5-[(Z)-(5-fluoro-1,2-dihydro-2-oxo-3H-indol-3-yliden)methyl]-2,4-dimethyl-1H-pyrrole-3-carboxamide], the solubility profile result is “low solubility profile”.

The values above are taken from patent US8153678B2, “Process for preparing A 3-pyrrole substituted 2-indolinone malate salt” (Medichem, S.A., priority 2008, dated 2012).
